# Measurements from patent US20240026301A1, “METHODS AND COMPOSITIONS FOR GENERATING ENDOTHELIAL CELLS FROM PLURIPOTENT STEM CELLS” (Trailhead Biosystems Inc., priority 2022, published 2024).
# “Also recorded” adds a separate entry of the source.
# Columns and labels:
# pluripotent stem cells = conditions: DMEM base media with ascorbic acid; GSK-inhibitor treatment; cited from earlier work
# PECAM1 (CD31) = assay: 8-factor HD-DoE experiments (qPCR, partial least squares models) optimized for maximum expression of PECAM1 (CD31), stage 2 differentiation; format: cell-based, human
# Description: First, undifferentiated iPSC were grown for 48 h in CDM2 media containing 6 uM CHIR99021 (referred to herein as stage 1). Then stage 2 media was engineered. The basis of this was an 8-factor HD-DoE experiment with focus on differentiation of cells toward the endothelial lineage for an additional 3 days after termination of stage 1 treatment. To test the effectors, 48 different combinations of effectors generated using Design-of-Experiments compression through D-optimality were robotically prepared. The effector combinations were prepared in a basal media and were subsequently added to the cells, which were then allowed to differentiate. Three days later, RNA extraction was performed, and gene expression was obtained using quantitative PCR analysis. The data were normalized and modeled using partial least squares regression analysis to the effector design, resulting in the generation of gene-specific models, which after model tuning for maximal Q2 predictive power, provided explanation of the effectors ability to control the expression of individual genes, combinatorically, and individually. Solutions within the tested space could then be explored to address desirability. Optimizing for maximal expression of CD31 led to a robust solution. […] On this model, we observed high levels of KDR, important receptor for VEGF signaling.
# This model was derived from initial testing of eight factors including: VEGF, FGF2, TTNBP, AGN194310, Y27632, Thymosin B4 and Heparin.
# Next, we evaluated further factors to possibly increase the complexity of the signaling inputs to attain effective fate control. As previously, we focused on expression of CD31. Optimizing for maximal expression of the CD31 led to a robust solution. […] This model was derived from initial testing of eight factors including: YHHU-3792, DBZ, Pumorphamine, SANT1, LPA, YODA1, VEGF and B27. […] DBZ and LPA had low contributions factors and therefore were not used in the recipe.
# To further improve the recipe for endothelial cell differentiation, we performed additional HD-DoE experiments. This model was derived from initial testing of eight factors including: VEGF, FGF2, Sphingosine 1 phosphate, VH298, Pyrintegrin, Erythropoetin, L-ascorbic acid and XAV939. […] On this model, we observed high levels of KDR, important receptor for VEGF signaling. […] Considering all the models analyzed, based on predicted conditions that maximize expression of endothelial enriched genes such as ERG, CDH5, CD31, FLI1, CD34, a complex recipe for endothelial differentiation was developed that is composed of 6 effectors, as shown below in Table 2: […]
# CD31 [1] = assay: Factor criticality analysis (dynamic profile analysis), CD31 expression level; format: cell-based, human; design: values of CD31, effector removed / CD31 levels, effector removed / CD31 levels before addition of the SHH agonist / CD31 levels after addition of the SHH agonist: unit not given here; conditions: for values of CD31, effector present / values of CD31, effector removed: FIG. 6 model; for values of CD31, effector present: all factors present
# [2] = test system: PECAM1, CD34, CDH5 and FLI1; assay: Dynamic profile analysis of expression levels relative to effector concentration (figure legends); format: cell-based, human; conditions: for impact on expression of PECAM1, CD34, CDH5 and FLI1: FIG. 5A-5B, slope of plots relative to effector concentration
# Text: FIG. 5A-5B show the dynamic profile analysis of expression levels of PECAM1, CD34, CDH5 and FLI1 relative to the concentration of 3 validated effectors.
# FIG. 6A-6B show the dynamic profile analysis of expression levels of PECAM1, CD34, CDH5 and Fli1 relative to the concentration of 3 validated effectors.
# (§1) To assess the impact of elimination of each validated factor on genes associated with the endothelial lineage, dynamic profile analysis was used and the expression levels of genes of interest were compared in the absence of each finalized factor while others are kept present.
# CDH5 [3] = assay: Factor criticality analysis (dynamic profile analysis), CDH5 expression level; format: cell-based, human
# CD34 = assay: Factor criticality analysis (dynamic profile analysis), CD34 expression level; format: cell-based, human; conditions: for values of CD34, effector present / values of CD34, effector removed: FIG. 5 model; for values of CD34, effector present: all finalized factors present; for values of CD34, effector removed / CD34 levels, effector removed: named effector removed; for values of CD34, effector removed: other factors kept
# Description: (§2) First, undifferentiated iPSC were grown for 48 h in CDM2 media containing 6 uM CHIR99021 (referred to herein as stage 1). Then stage 2 media was engineered. The basis of this was an 8-factor HD-DoE experiment with focus on differentiation of cells toward the endothelial lineage for an additional 3 days after termination of stage 1 treatment. To test the effectors, 48 different combinations of effectors generated using Design-of-Experiments compression through D-optimality were robotically prepared. The effector combinations were prepared in a basal media and were subsequently added to the cells, which were then allowed to differentiate. Three days later, RNA extraction was performed, and gene expression was obtained using quantitative PCR analysis. The data were normalized and modeled using partial least squares regression analysis to the effector design, resulting in the generation of gene-specific models, which after model tuning for maximal Q2 predictive power, provided explanation of the effectors ability to control the expression of individual genes, combinatorically, and individually. Solutions within the tested space could then be explored to address desirability.
# as §1
# (§3) In this analysis, removal of a finalized effector while keeping other factors was used to analyze the impact of factors on the expression levels of CD31, CD34, FLi1 and CDH5 (FIG. 5A).
# FLI1 = assay: Factor criticality analysis (dynamic profile analysis), FLI1 expression level; format: cell-based, human; conditions: for values of FLI1, effector present: all finalized factors present; for values of Fli1, effector present / values of Fli1, effector removed: FIG. 6 model; for values of Fli1, effector present: all factors present
# Description: as §2, §1, §3
# CD31 [4] = assay: Factor criticality analysis (dynamic profile analysis), CD31 expression level; format: cell-based, human; design: values of CD31, effector removed: unit not given here; conditions: FIG. 5 model; for values of CD31, effector present: all finalized factors present; for values of CD31, effector removed: named effector removed, other factors kept
# Description: as §2, §1, §3
# CDH5 [5] = assay: Factor criticality analysis (dynamic profile analysis), CDH5 expression level; format: cell-based, human; conditions: FIG. 5 model; for values of CDH5, effector present: all finalized factors present; for values of CDH5, effector removed: named effector removed, other factors kept
# Description: as §2, §1, §3
# [6] = model of FIG. 3, factors YHHU-3792, DBZ, Pumorphamine, SANT1, LPA, YODA1, VEGF, B27
# [7] = FIG. 7 model, L-ascorbic acid kept in the model
# [8] = FIG. 7 model, named effector removed, L-ascorbic acid kept
# [9] = model of FIG. 2, factors VEGF, FGF2, TTNBP, AGN194310, Y27632, Thymosin B4, Heparin, 3 days after stage 1
# [10] = FIG. 6 model, all factors present
# [11] = model of FIG. 4, factors VEGF, FGF2, Sphingosine 1 phosphate, VH298, Pyrintegrin, Erythropoetin, L-ascorbic acid, XAV939
Compound,factor contribution (positive impact on expression of genes of interest) (PECAM1 (CD31); [6]),"impact on expression of PECAM1, CD34, CDH5 and FLI1 [2]","values of CD34, effector present (CD34)","values of CD34, effector removed (CD34)","values of FLI1, effector present (FLI1; FIG. 5 model)",factor contribution (positive impact on expression of genes of interest) (PECAM1 (CD31); [9]),"values of CD31, effector present (CD31 [4])","values of CD31, effector removed (CD31 [4])","values of CDH5, effector present (CDH5 [5])","values of CDH5, effector removed (CDH5 [5])",factor contribution (positive impact on expression of genes of interest) (PECAM1 (CD31); [11]),further results
Cc1c[nH]c(-c2cnc(NCCNc3ccc(C#N)cn3)nc2-c2ccc(Cl)cc2Cl)n1 [CHIR99012],,,,,,,,,,,,yield of CD34+CD31+ cells prior to sorting (pluripotent stem cells): 20-30%
C[C@H](NC(=O)Cc1cc(F)cc(F)c1)C(=O)N[C@@H]1C(=O)N(C)c2ccccc2-c2ccccc21 [DBZ],low,,,,,,,,,,,
c1ccc2c(Oc3nc(Nc4ccc(N5CCOCC5)cc4)c4ncn(C5CCCCC5)c4n3)cccc2c1 [Pumorphamine],,,,,,,,,,,,"CD31 levels after addition of the SHH agonist (CD31 [1]; FIG. 7 model, agent added): 400; CD31 levels before addition of the SHH agonist (CD31 [1]; FIG. 7 model, without the added agent): 800"
Cc1nn(-c2ccccc2)c(C)c1/C=N/N1CCN(Cc2ccccc2)CC1 [SANT1],16,,,,,,,,,,,"impact on PECAM1 and CDH5 expression ([2]; FIG. 7A-7B model): positive impact; CD31 levels, effector present (CD31 [1]; [7]): 808; CD31 levels, effector removed (CD31 [1]; [8]): 563; CDH5 levels, effector present (CDH5 [3]; [7]): 2928; CDH5 levels, effector removed (CDH5 [3]; [8]): 2340"
C/C(=C\c1ccc(C(=O)O)cc1)c1ccc2c(c1)C(C)(C)CCC2(C)C [TTNBP],,positive impact,6500,4300,2883,21,2000,1077,10000,2600,,
Oc1nc(-c2ccc(C(F)(F)F)cc2)nc2c1CSCC2 [XAV939],,,,,,,,,,,15,"impact on PECAM1 and Fli1 expression ([2]; FIG. 6A-6B model): positive impact; CD34 levels, effector present (CD34; [10]): 7180; CD34 levels, effector removed (CD34; FIG. 6 model): 5836; values of Fli1, effector present (FLI1): 13400; values of Fli1, effector removed (FLI1; named effector removed): 7300; values of CD31, effector present (CD31 [1]): 6500; values of CD31, effector removed (CD31 [1]; named effector removed): 2225"
"FGF2: FGFR agonist, e.g. recombinant human FGF2",,,,,,did not significantly impact the expression of CD31,,,,,16,"impact on PECAM1, FLI1, and CDH5 expression ([2]; FIG. 6A-6B model): positive impact; CD34 levels, effector removed (CD34; FIG. 6 model): did not change significantly; values of Fli1, effector present (FLI1): 1300; values of Fli1, effector removed (FLI1; named effector removed): 500; values of CD31, effector present (CD31 [1]): 6500; values of CD31, effector removed (CD31 [1]; named effector removed): 1990; values of CDH5, effector present (CDH5 [3]; [10]): 19000; values of CDH5, effector removed (CDH5 [3]; FIG. 6 model, named effector removed): 5000"
VEGF,32,positive impact,6500,1000,4900,39,2000,340,10000,0,42,"impact on expression of all genes (PECAM1, CD34, CDH5 and Fli1) ([2]; FIG. 6A-6B model): positive impact; also recorded: critical; impact on expression of all genes (PECAM1, CD34, CDH5 and Fli1) ([2]; FIG. 7A-7B model): positive impact; values of FLI1, effector removed (FLI1; FIG. 5 model, named effector removed, other factors kept): 1035"
heparin,,positive impact,6500,4800,2883,11,2000,1500,10000,5800,,
